US9540366B2, “Ring-fused heterocyclic compound” (Kyowa Hakko Kirin Co., Ltd., priority 2012, dated 2017)
pIC50: −log10 of the molar value. Where two headings read alike, the source gives them in different places.

Columns and labels:
[1] = biological target: T1, human Cav3.2 T-type Ca2+ channel (Homo sapiens, UniProt O95180); experiment: Inhibitory effect for intracellular calcium response via Cav3.2 T-type Ca2+ channels (FLIPR Calcium 3 Assay Kit); assay type: cell-based
T1 construct: expressed in transfected cells; host or cells: KJMGER8 cells (Namalwa cell-derived cell line)

[2] = tested on: morphine-induced pruritus mice; experiment: Inhibitory effect for pruritus in morphine-induced pruritus mice; assay type: in vivo; settings: given 30 minutes or 1 hour before intrathecal morphine, scratching counted for 30 minutes, male ddY mice
Protocol: Inhibitory Effect for Pruritus in Morphine-Induced Pruritus Mice
Morphine (1 nmol/5 μL, dissolved in physiological saline) or physiological saline was intrathecally administered between the fifth and sixth lumbar vertebrae of male ddY mice using a microsyringe fitted with a 30-gauge injection needle. Mice to which only morphine was administered were referred to as a control group, and mice to which only physiological saline was administered were referred to as a physiological saline-administered group.
The number of scratching behavior with the hind legs which began to be observed immediately after the morphine administration was measured for 30 minutes. Because mice show continuous scratching actions in each scratching behavior, a series of such actions was counted as a single scratching behavior.
Each test compound was administered 30 minutes or 1 hour before the morphine administration. The test compound was suspended in a 0.5% methylcellulose solution and was prepared plural administration solutions of different concentrations, and each of them was orally administered in a volume of 10 mL/kg.

[3] = human Cav3.2-expressing KJMGER8 cells (Namalwa-derived), calcium response induced by 5 mmol/L CaCl2, 3 μmol/L mibefradil as reference, read-out: IC50 for the human Cav3.2 T-type Ca2+ current

T1 sequence (O95180 whole entry): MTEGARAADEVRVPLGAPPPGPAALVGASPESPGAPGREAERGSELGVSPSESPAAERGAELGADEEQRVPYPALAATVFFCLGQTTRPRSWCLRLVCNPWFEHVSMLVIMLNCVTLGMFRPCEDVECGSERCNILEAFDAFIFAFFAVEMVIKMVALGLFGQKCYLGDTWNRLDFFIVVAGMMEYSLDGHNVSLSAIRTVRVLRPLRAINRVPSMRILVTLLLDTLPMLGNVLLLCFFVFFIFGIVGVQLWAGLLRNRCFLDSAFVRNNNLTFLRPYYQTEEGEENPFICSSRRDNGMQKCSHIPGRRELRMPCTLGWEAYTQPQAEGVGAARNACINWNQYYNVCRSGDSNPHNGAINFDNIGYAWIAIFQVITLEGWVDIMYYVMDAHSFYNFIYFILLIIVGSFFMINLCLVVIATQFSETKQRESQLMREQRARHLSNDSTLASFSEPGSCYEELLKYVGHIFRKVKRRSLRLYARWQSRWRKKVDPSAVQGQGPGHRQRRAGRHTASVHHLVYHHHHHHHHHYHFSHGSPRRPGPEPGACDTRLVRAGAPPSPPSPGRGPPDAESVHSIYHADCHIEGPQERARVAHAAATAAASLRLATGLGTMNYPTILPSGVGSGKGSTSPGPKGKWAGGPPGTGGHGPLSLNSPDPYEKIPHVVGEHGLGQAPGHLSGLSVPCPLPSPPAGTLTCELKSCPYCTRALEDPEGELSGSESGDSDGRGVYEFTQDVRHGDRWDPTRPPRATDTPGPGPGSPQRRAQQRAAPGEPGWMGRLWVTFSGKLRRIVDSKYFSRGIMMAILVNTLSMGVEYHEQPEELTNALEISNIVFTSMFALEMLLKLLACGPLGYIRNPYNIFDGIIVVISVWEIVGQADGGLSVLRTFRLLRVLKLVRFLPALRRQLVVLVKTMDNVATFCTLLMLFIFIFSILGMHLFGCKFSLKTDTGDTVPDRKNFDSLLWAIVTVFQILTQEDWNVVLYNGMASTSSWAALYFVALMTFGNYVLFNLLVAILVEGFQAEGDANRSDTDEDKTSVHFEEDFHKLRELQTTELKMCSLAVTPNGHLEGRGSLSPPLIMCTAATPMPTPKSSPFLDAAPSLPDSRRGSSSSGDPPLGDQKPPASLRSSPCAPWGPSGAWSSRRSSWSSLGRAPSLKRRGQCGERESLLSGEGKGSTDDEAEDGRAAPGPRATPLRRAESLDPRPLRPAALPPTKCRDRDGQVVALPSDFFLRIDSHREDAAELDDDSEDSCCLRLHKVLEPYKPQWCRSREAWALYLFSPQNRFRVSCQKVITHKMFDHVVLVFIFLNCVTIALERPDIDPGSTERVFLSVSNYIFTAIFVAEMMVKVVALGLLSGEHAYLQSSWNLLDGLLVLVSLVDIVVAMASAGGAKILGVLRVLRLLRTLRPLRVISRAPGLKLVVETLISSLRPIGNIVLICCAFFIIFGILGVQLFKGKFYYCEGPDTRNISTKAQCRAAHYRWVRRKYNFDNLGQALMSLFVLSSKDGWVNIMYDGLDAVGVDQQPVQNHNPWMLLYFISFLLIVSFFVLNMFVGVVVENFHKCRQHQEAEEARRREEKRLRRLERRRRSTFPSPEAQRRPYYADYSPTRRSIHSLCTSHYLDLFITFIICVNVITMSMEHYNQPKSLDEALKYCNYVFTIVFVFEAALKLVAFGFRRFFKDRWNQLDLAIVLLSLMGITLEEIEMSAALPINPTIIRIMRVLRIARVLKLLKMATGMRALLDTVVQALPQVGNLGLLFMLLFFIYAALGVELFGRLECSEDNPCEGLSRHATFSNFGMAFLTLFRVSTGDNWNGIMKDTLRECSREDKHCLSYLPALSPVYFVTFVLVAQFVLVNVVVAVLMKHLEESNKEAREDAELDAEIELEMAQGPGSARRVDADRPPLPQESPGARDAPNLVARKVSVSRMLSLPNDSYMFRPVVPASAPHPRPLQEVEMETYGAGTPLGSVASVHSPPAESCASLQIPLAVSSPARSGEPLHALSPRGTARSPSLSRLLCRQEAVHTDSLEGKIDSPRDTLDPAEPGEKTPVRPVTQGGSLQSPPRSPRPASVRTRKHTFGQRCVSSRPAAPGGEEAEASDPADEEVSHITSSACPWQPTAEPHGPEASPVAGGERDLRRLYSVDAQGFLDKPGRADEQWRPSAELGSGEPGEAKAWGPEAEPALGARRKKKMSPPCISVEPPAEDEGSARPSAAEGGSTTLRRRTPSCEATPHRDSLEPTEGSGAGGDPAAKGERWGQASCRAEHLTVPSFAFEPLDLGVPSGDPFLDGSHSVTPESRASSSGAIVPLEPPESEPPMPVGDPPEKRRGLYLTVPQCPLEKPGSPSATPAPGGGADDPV

Compound | pIC50 [1] | other results
CC(F)(F)c1nc2cc(C(=O)NC3CCC(F)(F)CC3)c(Cl)cn2c1CC1CCC(F)(F)CC1 [Compound 15, 6-Chloro-N-(4,4-difluorocyclohexyl)-3-[(4,4-difluorocyclohexyl)methyl]-2-(1,1-difluoroethyl)imidazo[1,2-a]pyridine-7-carboxamide] | ≥ 7.00 | inhibition of the increase of the scratching behavior in morphine-induced pruritus mice ([2]; oral dose of 30 mg/kg or less): inhibited the increase of the scratching behavior
N#Cc1cc(C(=O)NC2CCOCC2)cc2nc(C(F)(F)F)c(CC3CCC(F)(F)CC3)n12 [Compound 40] | ≥ 7.00 | inhibition of the increase of the scratching behavior in morphine-induced pruritus mice ([2]; oral dose of 30 mg/kg or less): inhibited the increase of the scratching behavior
N#Cc1cc(C(=O)NCC2CC2)cc2nc(C(F)(F)F)c(CC3CCC(F)(F)CC3)n12 [Compound 53, 5-Cyano-N-(cyclopropylmethyl)-3-[(4,4-difluorocyclohexyl)methyl]-2-(trifluoromethyl)imidazo[1,2-a]pyridine-7-carboxamide] | – | pIC50 [1, 3]: ≥ 7.00; inhibition of the increase of the scratching behavior in morphine-induced pruritus mice ([2]; oral dose of 30 mg/kg or less): inhibited the increase of the scratching behavior
COC(C)(C)CNC(=O)c1cc(C#N)n2c(CC3CCC(F)(F)CC3)c(C(F)(F)F)nc2c1 [Compound 55, 5-Cyano-3-[(4,4-difluorocyclohexyl)methyl]-N-(2-methoxy-2-methylpropyl)-2-(trifluoromethyl)imidazo[1,2-a]pyridine-7-carboxamide] | ≥ 7.00 | inhibition of the increase of the scratching behavior in morphine-induced pruritus mice ([2]; oral dose of 30 mg/kg or less): inhibited the increase of the scratching behavior
O=C(NC1CC2(COC2)C1)c1cc(Cl)n2c(CC3CCC(F)(F)CC3)c(C(F)(F)F)nc2c1 [Compound 129, 5-Chloro-3-[(4,4-difluorocyclohexyl)methyl]-N-(2-oxaspiro[3.3]heptan-6-yl)-2-(trifluoromethyl)imidazo[1,2-a]pyridine-7-carboxamide] | – | inhibition of the increase of the scratching behavior in morphine-induced pruritus mice ([2]; oral dose of 30 mg/kg or less): inhibited the increase of the scratching behavior
COC(C)(C)CNC(=O)c1cc(C#N)n2c(CC3CCC(F)(F)CC3)c(C(C)(F)F)nc2c1 [Compound 164, 5-Cyano-3-[(4,4-difluorocyclohexyl)methyl]-2-(1,1-difluoroethyl)-N-(2-methoxy-2-methylpropyl)imidazo[1,2-a]pyridine-7-carboxamide] | ≥ 7.00 | inhibition of the increase of the scratching behavior in morphine-induced pruritus mice ([2]; oral dose of 10 mg/kg or less): inhibited the increase of the scratching behavior
O=C(NC1CCOCC1)c1cc2nc(C(F)(F)F)c(CC3CCC(F)(F)CC3)n2c(Cl)c1Cl [Compound 193] | – | inhibition of the increase of the scratching behavior in morphine-induced pruritus mice ([2]; oral dose of 10 mg/kg or less): inhibited the increase of the scratching behavior
Cc1cc(C(=O)NC2CCOCC2)cc2nc(C(F)(F)F)c(Cc3ccccc3)n12 [Compound 206, 3-Benzyl-5-methyl-N-(tetrahydro-2H-pyran-4-yl)-2-(trifluoromethyl)imidazo[1,2-a]pyridine-7-carboxamide] | ≥ 7.00 | –
Cc1ccc(Cc2c(C(F)(F)F)nc3cc(C(=O)NC4CCOCC4)cc(C)n23)cc1 [Compound 207, 5-Methyl-3-(4-methylbenzyl)-N-(tetrahydro-2H-pyran-4-yl)-2-(trifluoromethyl)imidazo[1,2-a]pyridine-7-carboxamide] | ≥ 7.00 | –
COc1ccc(Cc2c(C(F)(F)F)nc3cc(C(=O)NC4CCOCC4)cc(C)n23)cc1 [Compound 209, 3-(4-Methoxybenzyl)-5-methyl-N-(tetrahydro-2H-pyran-4-yl)-2-(trifluoromethyl)imidazo[1,2-a]pyridine-7-carboxamide] | ≥ 7.00 | –
N#Cc1cc(C(=O)N2C[C@H]3COC[C@@H](C2)C3=O)cc2nc(C(F)(F)F)c(CC3CCC(F)(F)CC3)n12 [Compound 210, 3-[(4,4-Difluorocyclohexyl)methyl]-7-[(1R,5S)-9-oxo-3-oxa-7-azabicyclo[3.3.1]nonane-7-carbonyl)-2-(trifluoromethyl)imidazo[1,2-a]pyridine-5-carbonitrile] | – | pIC50 [1, 3]: ≥ 7.00
N#Cc1cc(C(=O)NC2CCOCC2)cc2nc(C(F)(F)F)c(Cc3ccc(Cl)cc3)n12 [Compound 211, 3-(4-Chlorobenzyl)-5-cyano-N-(tetrahydro-2H-pyran-4-yl)-2-(trifluoromethyl)imidazo[1,2-a]pyridine-7-carboxamide] | ≥ 7.00 | –
Cc1cc(C(=O)NC2CCOCC2)cc2nc(C(F)(F)F)c(Cc3ccc(F)cc3)n12 [Compound 212, 3-(4-Fluorobenzyl)-5-methyl-N-(tetrahydro-2H-pyran-4-yl)-2-(trifluoromethyl)imidazo[1,2-a]pyridine-7-carboxamide] | ≥ 7.00 | –
CSC(C)(C)CNC(=O)c1cc2nc(C(F)(F)F)c(CC3CCC(F)(F)CC3)n2c(Cl)c1Cl [Compound 213, 5,6-Dichloro-3-[(4,4-difluorocyclohexyl)methyl]-N-[2-methyl-2-(methylthio)propyl]-2-(trifluoromethyl)imidazo[1,2-a]pyridine-7-carboxamide] | ≥ 7.00 | –
Cc1cc(C(=O)NC2CCOCC2)cc2nc(C(C)(F)F)c(Cc3ccc(Cl)cc3)n12 [Compound 214, 3-(4-Chlorobenzyl)-2-(1,1-difluoroethyl)-5-methyl-N-(tetrahydro-2H-pyran-4-yl)imidazo[1,2-a]pyridine-7-carboxamide] | ≥ 7.00 | –
Cc1cc(C(=O)N[C@H]2C[C@@H]3CC[C@H]2O3)cc2nc(C(C)(F)F)c(Cc3ccc(Cl)cc3)n12 [Compound 215, N-[(1R,2S,4S)-7-Oxabicyclo[2.2.1]heptan-2-yl]-3-(4-chlorobenzyl)-2-(1,1-difluoroethyl)-5-methylimidazo[1,2-a]pyridine-7-carboxamide] | – | pIC50 [1, 3]: ≥ 7.00
CC(C)(CNC(=O)c1cc2nc(C(F)(F)F)c(CC3CCC(F)(F)CC3)n2c(Cl)c1Cl)S(C)(=O)=O [Compound 216, 5,6-Dichloro-3-[(4,4-difluorocyclohexyl)methyl]-N-[2-methyl-2-(methylsulfonyl)propyl]-2-(trifluoromethyl)imidazo[1,2-a]pyridine-7-carboxamide] | ≥ 7.00 | –
Cc1cc(C(=O)NC(C)(C)C)cc2nc(C(F)(F)F)c(CC3CCC(F)(F)CC3)n12 [Compound 217, N-tert-Butyl-3-[(4,4-difluorocyclohexyl)methyl]-5-methyl-2-(trifluoromethyl)imidazo[1,2-a]pyridine-7-carboxamide] | ≥ 7.00 | –
Cc1cc(C(=O)NC(C)(C)C)cc2nc(C(C)(F)F)c(CC3CCC(F)(F)CC3)n12 [Compound 218, N-tert-Butyl-3-[(4,4-difluorocyclohexyl)methyl]-2-(1,1-difluoroethyl)-5-methylimidazo[1,2-a]pyridine-7-carboxamide] | ≥ 7.00 | –
Cc1cc(C(=O)NC(C)(C)C)cc2nc(C(C)C)c(CC3CCC(F)(F)CC3)n12 [Compound 219, N-tert-Butyl-3-[(4,4-difluorocyclohexyl)methyl]-2-isopropyl-5-methylimidazo[1,2-a]pyridine-7-carboxamide] | ≥ 7.00 | –
CC(C)(C)NC(=O)c1cc(Cl)n2c(CC3CCC(F)(F)CC3)c(C(F)(F)F)nc2c1 [Compound 220, N-tert-Butyl-5-chloro-3-[(4,4-difluorocyclohexyl)methyl]-2-(trifluoromethyl)imidazo[1,2-a]pyridine-7-carboxamide] | ≥ 7.00 | –
CC(F)(F)c1nc2cc(C(=O)NC3CCOCC3)cc(C#N)n2c1Cc1ccc(Cl)cc1 [Compound 221, 3-(4-Chlorobenzyl)-5-cyano-2-(1,1-difluoroethyl)-N-(tetrahydro-2H-pyran-4-yl)imidazo[1,2-a]pyridine-7-carboxamide] | ≥ 7.00 | –
CC(F)(F)c1nc2cc(C(=O)N[C@H]3C[C@@H]4CC[C@H]3O4)cc(C#N)n2c1Cc1ccc(Cl)cc1 [Compound 222, N-[(1R,2S,4S)-7-Oxabicyclo[2.2.1]heptan-2-yl]-3-(4-chlorobenzyl)-5-cyano-2-(1,1-difluoroethyl)imidazo[1,2-a]pyridine-7-carboxamide] | ≥ 7.00 | –
[2H]C([2H])([2H])OC(C)(C)CNC(=O)c1cc(C#N)n2c(Cc3ccc(Cl)cc3)c(C(C)(F)F)nc2c1 [Compound 223, 3-(4-Chlorobenzyl)-5-cyano-2-(1,1-difluoroethyl)-N-(2-methoxy-d3-2-methylpropyl)imidazo[1,2-a]pyridine-7-carboxamide] | ≥ 7.00 | –
Cc1cc(C(=O)NC2CCOCC2)cc2nc(C(C)C)c(Cc3ccc(Cl)cc3)n12 [Compound 224, 3-(4-Chlorobenzyl)-2-isopropyl-5-methyl-N-(tetrahydro-2H-pyran-4-yl)imidazo[1,2-a]pyridine-7-carboxamide] | ≥ 7.00 | –
CC(C)(C)NC(=O)c1cc(C#N)n2c(CC3CCC(F)(F)CC3)c(C(C)(F)F)nc2c1 [Compound 225, N-tert-Butyl-5-cyano-3-[(4,4-difluorocyclohexyl)methyl]-2-(1,1-difluoroethyl)imidazo[1,2-a]pyridine-7-carboxamide] | ≥ 7.00 | –
CC(C)c1nc2cc(C(=O)NC(C)(C)C)cc(C#N)n2c1CC1CCC(F)(F)CC1 [Compound 226, N-tert-Butyl-5-cyano-3-[(4,4-difluorocyclohexyl)methyl]-2-isopropylimidazo[1,2-a]pyridine-7-carboxamide] | ≥ 7.00 | –
CC(C)(C)NC(=O)c1cc2nc(C(F)(F)F)c(CC3CCC(F)(F)CC3)n2c(Cl)c1Cl [Compound 227, N-tert-Butyl-5,6-dichloro-3-[(4,4-difluorocyclohexyl)methyl]-2-(trifluoromethyl)imidazo[1,2-a]pyridine-7-carboxamide] | ≥ 7.00 | –
